Here are results for 5 molecules from ChEMBL document CHEMBL1139518, “A new structural motif for mu-opioid antagonists” (J Med Chem, 2005).

Structures are written as SMILES. Where a SMILES comes first, the peptide text is derived from it.

The species named for assay [1] is Mus musculus. As to the kind of experiment: Antagonist activity of compound against DPDPE-induced electrically evoked contractions of mouse vas deferens. Type of assay: functional.
The target in a further assay is Mu-type opioid receptor (Rattus norvegicus, UniProt P33535). In words: Inhibition of [3H]naloxone binding to rat Opioid receptor mu.
Chain of Mu-type opioid receptor (P33535 whole entry): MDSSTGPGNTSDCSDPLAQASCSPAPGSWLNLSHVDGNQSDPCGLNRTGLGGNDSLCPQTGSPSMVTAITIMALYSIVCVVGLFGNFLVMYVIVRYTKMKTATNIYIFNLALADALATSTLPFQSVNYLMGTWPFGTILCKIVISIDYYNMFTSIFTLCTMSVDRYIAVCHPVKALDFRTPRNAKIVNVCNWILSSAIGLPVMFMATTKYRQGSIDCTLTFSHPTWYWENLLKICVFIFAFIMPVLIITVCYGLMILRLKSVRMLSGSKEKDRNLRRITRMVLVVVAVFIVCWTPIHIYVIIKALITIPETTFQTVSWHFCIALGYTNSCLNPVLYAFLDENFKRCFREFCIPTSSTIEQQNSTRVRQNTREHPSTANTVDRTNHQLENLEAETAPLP
A short description of assay [2]: Antagonist activity of compound against TAPP-induced electrically evoked contractions of guinea pig ileum. It counts as functional, Cavia porcellus.
Assay [3] concerns the target Delta-type opioid receptor (Rattus norvegicus, UniProt P33533). In words: Inhibition of [3H][Ile5,6]-deltorphin I binding to rat Opioid receptor delta.
The nature of assay [4]: Ratio of antagonist activity against TAPP-induced contractions of guinea pig ileum to that of DPDPE-induced contractions of mouse vas deferens. Type of assay: functional, Cavia porcellus.
For assay [5], the species on record is Mus musculus. In words: Atagonist activity of compound against DPDPE-induced electrically evoked contractions of mouse vas deferens. It counts as functional.

Chain of Delta-type opioid receptor (P33533 whole entry): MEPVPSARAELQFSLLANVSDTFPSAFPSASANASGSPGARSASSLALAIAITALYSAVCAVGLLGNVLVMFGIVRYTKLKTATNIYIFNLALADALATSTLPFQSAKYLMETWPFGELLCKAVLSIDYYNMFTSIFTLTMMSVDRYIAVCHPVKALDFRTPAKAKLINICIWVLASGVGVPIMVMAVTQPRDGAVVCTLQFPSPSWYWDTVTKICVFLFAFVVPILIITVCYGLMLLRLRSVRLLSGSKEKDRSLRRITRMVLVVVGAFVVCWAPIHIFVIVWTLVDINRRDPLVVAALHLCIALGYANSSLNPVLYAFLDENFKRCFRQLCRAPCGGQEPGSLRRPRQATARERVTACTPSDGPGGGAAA

For `Cc1cc(O)cc(C)c1C[C@H](N)CN1Cc2ccccc2C[C@@H](NC(=O)Cc2ccccc2)C1=O`, the values for the Ke (in the assay filed under Mus musculus [1]; in assay [2]) were 1590 nM and 823 nM, respectively. Besides, the Ki (usually a measure of affinity in units of concentration, obtained from inhibition or displacement) turned out to be 23.5 nM at Mu-type opioid receptor and 1100 nM in assay [3]. Further, the Ratio in assay [4] amounted to 0.5.
For `Cc1cc(O)cc(C)c1C[C@@H](N)CN1Cc2ccccc2C[C@H](NC(=O)Cc2ccccc2)C1=O` the same measures were 185 nM, 207 nM, 15.1 nM, 684 nM and 1.666.
In the case of `N[C@@H](Cc1ccc(O)cc1)C(=O)N1Cc2ccccc2C[C@H]1C(=O)N[C@@H](Cc1ccccc1)C(=O)N[C@@H](Cc1ccccc1)C(=O)O` (HELM PEPTIDE1{Y.[Tic].F.F}$$$$V2.0), the Ke in the assay filed under Mus musculus [5] is recorded as 4.8 nM.
For `Cc1cc(O)cc(C)c1C[C@@H](N)CN1Cc2ccccc2C[C@@H](NC(=O)Cc2ccccc2)C1=O`, the Ke came to 1440 nM in the assay listed under Mus musculus [1] and 85.1 nM in assay [2]. Besides, the Ki stood at 41.7 nM at Mu-type opioid receptor and 2900 nM in assay [3]. The Ratio in assay [4] was found to be 0.058.
For `Cc1cc(O)cc(C)c1C[C@H](N)CN1Cc2ccccc2C[C@H](NC(=O)Cc2ccccc2)C1=O` the same measures were 318 nM, 38.6 nM, 3.3 nM, 25.8 nM and 0.125.
